Source: patent publication US8283465B2, “Triazolopyridine compound, and action thereof as prolyl hydroxylase inhibitor or erythropoietin production-inducing agent” (Japan Tobacco Inc., priority 2009, dated 2012)
Where a name gives a salt, the structure may show the parent alone.

Tests used:
[1] = tested on: human EPO production, Hep3B cells; experiment: Human EPO production activity in Hep3B cells (EPO-ELISA of culture supernatant); assay type: cell-based; conditions: for production activity (%) at 30 μM in vitro, human EPO: 24 hr, values containing %, relative to maximum production; for EC50: Homo sapiens, 24 hr incubation, values consisting solely of numbers, read-out: EC50 (μM) in vitro, human EPO production activity
Method in brief: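 Hep3B cells were dosed with compound 24 h after plating and incubated 24 h at 37° C. Secreted EPO in supernatant was measured by ELISA. Values are EC50, or activity (%) at 30 μM scaled between untreated and maximum production.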

human PHD2 = target: T1, human PHD2 (Homo sapiens, UniProt Q9GZT9); experiment: Measurement of human PHD inhibitory activity (TR-FRET, hydroxylation of HIF-1α partial peptide); assay type: biochemical; conditions: for IC50: human PHD2 enzyme 1 nM, 25° C. 30 min, values consisting solely of numbers, read-out: IC50 (μM) in vitro, human PHD inhibitory activity
T1 construct: made in house; host or cells: Sf9 insect cells (baculovirus, pVL1393 vector)
Method in brief: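 FLAG-tagged human PHD2 from Sf9 cells (1 nM final) hydroxylates a biotinylated 19-residue HIF-1α peptide, 30 min at 25° C. After EDTA stop, hydroxyproline detected by TR-FRET using Eu/Xlent-labelled VBC complex; % inhibition relative to no-enzyme and no-compound wells.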

T1 sequence (Q9GZT9 whole entry): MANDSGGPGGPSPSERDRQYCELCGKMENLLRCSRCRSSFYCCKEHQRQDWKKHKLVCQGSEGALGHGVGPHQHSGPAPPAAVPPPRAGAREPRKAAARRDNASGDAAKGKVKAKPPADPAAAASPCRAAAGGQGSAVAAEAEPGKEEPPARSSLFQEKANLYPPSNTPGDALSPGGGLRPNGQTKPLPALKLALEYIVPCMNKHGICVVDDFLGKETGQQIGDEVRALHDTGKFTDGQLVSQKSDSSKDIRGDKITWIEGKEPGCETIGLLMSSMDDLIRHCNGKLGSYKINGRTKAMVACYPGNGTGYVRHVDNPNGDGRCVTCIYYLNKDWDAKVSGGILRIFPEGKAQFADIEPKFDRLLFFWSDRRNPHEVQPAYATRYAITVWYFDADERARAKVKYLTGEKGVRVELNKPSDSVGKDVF

`Cl.O=C(O)CNC(=O)c1c(O)cc(CC2CCCCC2)c2ncnn12` [Example 91, [(8-cyclohexylmethyl-6-hydroxy[1,2,4]triazolo[1,5-a]pyridine-5-carbonyl)amino] acetic acid hydrochloride] was tested, and the “production activity (%) at 30 μM in vitro, human EPO” value (“production activity (%) at 30 μM” below) [1] was 43% and the IC50 (human PHD2) was 1.53 µM.

In the case of `O=C(O)CNC(=O)c1c(O)cc(CC2CCCC2)n2ncnc12` [Example 20, [(5-cyclopentylmethyl-7-hydroxy[1,2,4]triazolo[1,5-a]pyridin-8-carbonyl)amino]acetic acid hydrochloride], the EC50 [1] is reported as 6.6 µM and the IC50 (human PHD2) is reported as 0.59 µM.

With `O=C(O)CNC(=O)c1c(O)cc(-c2ccc(Cl)cc2)n2ncnc12` [Example 50, {[5-(4-chlorophenyl)-7-hydroxy[1,2,4]triazolo[1,5-a]pyridine-8-carbonyl]amino}acetic acid hydrochloride] the EC50 [1] was 5.6 µM and the IC50 (human PHD2) was 0.18 µM.

Compound `O=C(O)CNC(=O)c1c(O)cc(CCc2ccccc2C(F)(F)F)c2ncnn12` [Example 100, ({6-hydroxy-8-[2-(2-trifluoromethyl phenyl)ethyl][1,2,4]triazolo[1,5-a]pyridine-5-carbonyl}amino) acetic acid hydrochloride] has an EC50 [1] of 18 µM and an IC50 (human PHD2) of 0.82 µM.

With `Cc1cccc(-c2cc(O)c(C(=O)NCC(=O)O)c3ncnn23)c1` [Example 51, [(7-hydroxy-5-(m-tolyl)[1,2,4]triazolo[1,5-a]pyridine-8-carbonyl)amino] acetic acid hydrochloride] the EC50 [1] was 9.1 µM and the IC50 (human PHD2) was 0.26 µM.

`O=C(O)CNC(=O)c1c(O)c(Cl)c(CCc2ccccc2)n2ncnc12` [Example 80, [(6-chloro-7-hydroxy-5-phenethyl[1,2,4]triazolo[1,5-a]pyridine-8-carbonyl)amino] acetic acid hydrochloride] gave an EC50 [1] of 23.3 µM and an IC50 (human PHD2) of 0.71 µM.

With `N#Cc1cccc(-c2cc(O)c(C(=O)NCC(=O)O)c3ncnn23)c1` [Example 37, {[5-(3-cyanophenyl)-7-hydroxy[1,2,4]triazolo[1,5-a]pyridine-8-carbonyl]amino}acetic acid hydrochloride] the “production activity (%) at 30 μM” value [1] was 11% and the IC50 (human PHD2) was 0.2 µM.

Compound `O=C(O)CNC(=O)c1c(O)cc(CCc2ccc(C(F)(F)F)cc2)c2ncnn12` [Example 102, ({6-hydroxy-8-[2-(4-trifluoromethyl phenyl)ethyl] [1,2,4]triazolo[1,5-a]pyridine-5-carbonyl}amino) acetic acid hydrochloride] has an EC50 [1] of 16 µM and an IC50 (human PHD2) of 0.51 µM.

For `O=C(O)CNC(=O)c1c(O)cc(CCC2CCCCC2)c2ncnn12` [Example 98, {[8-(2-cyclohexylethyl)-6-hydroxy[1,2,4]triazolo[1,5-a]pyridine-5-carbonyl]amino} acetic acid hydrochloride], the EC50 [1] was 25.6 µM and the IC50 (human PHD2) was 1.13 µM.

`O=C(O)CNC(=O)c1c(O)cc(-c2cc(F)cc(C(F)(F)F)c2)c2ncnn12` [Example 104, {[8-(3-fluoro-5-trifluoromethyl-phenyl)-6-hydroxy[1,2,4]triazolo[1,5-a]pyridine-5-carbonyl]amino} acetic acid hydrochloride] gave an EC50 [1] of 6.3 µM and an IC50 (human PHD2) of 0.19 µM.

In the case of `O=C(O)CNC(=O)c1c(O)cc(-c2ccccc2Cl)c2ncnn12` [Example 88, {[8-(2-chlorophenyl)-6-hydroxy[1,2,4]triazolo[1,5-a]pyridine-5-carbonyl]amino} acetic acid], the “production activity (%) at 30 μM” value [1] is reported as 14% and the IC50 (human PHD2) is reported as 0.16 µM.

For `O=C(O)CNC(=O)c1c(O)cc(CCc2ccc(Cl)cc2)n2ncnc12` [Example 14, ({5-[2-(4-chlorophenyl)ethyl]-7-hydroxy[1,2,4]triazolo[1,5-a]pyridine-8-carbonyl}amino)acetic acid hydrochloride], the EC50 [1] was 5.1 µM and the IC50 (human PHD2) was 0.23 µM.

With `O=C(O)CNC(=O)c1c(O)cc(-c2cc(Cl)cc(C3CC3)c2)c2ncnn12` [Example 103, {[8-(3-chloro-5-cyclopropylphenyl)-6-hydroxy[1,2,4]triazolo[1,5-a]pyridine-5-carbonyl]amino} acetic acid hydrochloride] the EC50 [1] was 6.9 µM and the IC50 (human PHD2) was 0.18 µM.

Compound `Cc1ccc(-c2cc(O)c(C(=O)NCC(=O)O)c3ncnn23)cc1` [Example 26, {[7-hydroxy-5-(p-tolyl)[1,2,4]triazolo[1,5-a]pyridine-8-carbonyl]amino}acetic acid hydrochloride] has an EC50 [1] of 7.5 µM and an IC50 (human PHD2) of 0.33 µM.

Compound `O=C(O)CNC(=O)c1c(O)cc(-c2ccc(Cl)s2)c2ncnn12` [Example 96, {[8-(5-chlorothiophen-2-yl)-6-hydroxy[1,2,4]triazolo[1,5-a]pyridine-5-carbonyl]amino} acetic acid hydrochloride] has an EC50 [1] of 5.9 µM and an IC50 (human PHD2) of 0.29 µM.

In the case of `C[C@@H](NC(=O)c1c(O)cc(CCc2ccccc2)n2ncnc12)C(=O)O` [Example 70, (R)-2-[(7-hydroxy-5-phenethyl[1,2,4]triazolo[1,5-a]pyridine-8-carbonyl)amino] propionic acid hydrochloride], the “production activity (%) at 30 μM” value [1] is reported as 1% and the inhibition at 30 µM (human PHD2; at 30 μM, values containing %, read-out: inhibitory activity (%) at 30 μM in vitro, human PHD) is reported as 38%.

Work on `O=C(O)CNC(=O)c1c(O)cc(C2CCCCCC2)n2ncnc12` [Example 58, [(5-cycloheptyl-7-hydroxy[1,2,4]triazolo[1,5-a]pyridine-8-carbonyl)amino] acetic acid hydrochloride] yielded an EC50 [1] of 4.7 µM and an IC50 (human PHD2) of 0.55 µM.

For `C[C@H](NC(=O)c1c(O)cc(-c2cc(F)cc(F)c2)n2ncnc12)C(=O)O` [Example 67, (S)-2-{[5-(3,5-difluorophenyl)-7-hydroxy[1,2,4]triazolo[1,5-a]pyridine-8-carbonyl]amino} propionic acid hydrochloride], the EC50 [1] was 14.3 µM and the IC50 (human PHD2) was 0.9 µM.

For `O=C(O)CNC(=O)c1c(O)cc(CCc2ccc(C3CC3)cc2)n2ncnc12` [Example 38, ({5-[2-(4-cyclopropyl-phenyl)ethyl]-7-hydroxy[1,2,4]trizazolo[1,5-a]pyridine-8-carbonyl}amino)acetic acid hydrochloride], the EC50 [1] was 8.7 µM and the IC50 (human PHD2) was 0.59 µM.

With `CCCCCCc1cc(O)c(C(=O)NCC(=O)O)c2ncnn12.Cl` [Example 73, [(5-hexyl-7-hydroxy[1,2,4]triazolo[1,5-a]pyridine-8-carbonyl)amino] acetic acid hydrochloride] the “production activity (%) at 30 μM” value [1] was 34% and the IC50 (human PHD2) was 7.09 µM.

With `O=C(O)CNC(=O)c1c(O)cc(-c2ccc(C(F)(F)F)cc2)n2ncnc12` [Example 57, {[7-hydroxy-5-(4-trifluoromethyl-phenyl)[1,2,4]triazolo[1,5-a]pyridine-8-carbonyl]amino} acetic acid hydrochloride] the EC50 [1] was 4.7 µM and the IC50 (human PHD2) was 0.2 µM.

Work on `O=C(O)CNC(=O)c1c(O)cc(-c2cc(F)c(F)c(F)c2)n2ncnc12` [Example 49, {[7-hydroxy-5-(3,4,5-trifluorophenyl)[1,2,4]triazolo[1,5-a]pyridine-8-carbonyl]amino}acetic acid hydrochloride] yielded an EC50 [1] of 11.7 µM and an IC50 (human PHD2) of 0.24 µM.

For `O=C(O)CNC(=O)c1c(O)ccn2nc(-c3ccccc3)nc12` [Example 13, [(7-hydroxy-2-phenyl[1,2,4]triazolo[1,5-a]pyridine-8-carbonyl)amino]acetic acid hydrochloride], the “production activity (%) at 30 μM” value [1] was 1% and the IC50 (human PHD2) was 1.31 µM.
